The results in this text go back to US20260325654A1, “METHODS AND COMPOSITIONS FOR TARGETED PROTEIN DEGRADATION” (Ranok Therapeutics (Hangzhou) Co. Ltd., priority 2023, published 2026).

The target of test [1] is T1, KRAS(G12C) (Homo sapiens, UniProt P01116, G12C).
T1 construct: LU65A that expresses KRAS(G12C); host or cells: LU65A
Briefly: KRAS Western Blot Protein Degradation Assay, LU65A. The settings on record: 24 hr; for DC50: read-out: WB data LU65A DC50; for Dmax: read-out: WB data LU65A DMax. The test is classed as cell-based. The source says:
(§1) The following cancer cell lines were employed: • AsPC-1 human pancreatic adenocarcinoma, homozygous KRAS(G12D), (ATCC, #CRL-1682); A-427 human lung carcinoma, heterozygous KRAS(G12D), (ATCC, #HTB-53); AGS human gastric adenocarcinoma, heterozygous KRAS(G12D), (ATCC, #CRL-1739); GP2D human colon adenocarcinoma, heterozygous KRAS(G12D), (Sigma Aldrich, 95090714); SW1990 human pancreatic adenocarcinoma, homozygous KRAS(G12D), (ATCC, #CRL2172); LU65A human lung giant cell carcinoma, heterozygous KRAS(G12C), (JCRB Cell Bank, #JCRB0054); NCIH727 human lung carcinoid, heterozygous KRAS(G12V), (ATCC, #CRL-5815); MKN1 human gastric adenosquamous carcinoma KRAS (wt), (JCRB Cell Bank, #JCRB0252). Cell lines were cultured according to ATCC, JCRB and Sigma Aldrich recommendations.
(§2) Cell lines SW1990 and GP2D that express KRAS(G12D), LU65A that expresses KRAS(G12C), and NCIH727 that expresses KRAS(G12V) were seeded in 6- or 12-well tissue culture plates, and after 1 hr, test compounds were added at various concentrations and incubated at 37° C./5% CO2 for 24 hr. Cells were then washed with cold PBS, aspirated and cold RIPA buffer containing a protease/phosphatase inhibitor cocktail was added to lyse cells. After centrifugation, the total protein concentrations of cell lysates were determined using the BCA protein assay. Samples were normalized for equivalent protein concentrations, 5× SDS-PAGE loading buffer added and denatured at 100° C. for 10 min. 20 μl of each sample/well was loaded on a SDS-PAGE gel and electrophoresed for 20 min at 80 V, then 120 V for 1.5 hr. Gels were then electroblotted to nitrocellulose membranes using a wet-transfer method at 250 mA for 2.5 hr. Membranes were incubated with blocking buffer for 1 hr and washed 3 times with TBST for 5 min. Membranes were then incubated with anti-KRAS (Sigma-Aldrich, #SAB1404011) and anti-β-Actin monoclonal antibodies (Cell Signaling Technology, #3700) diluted in blocking buffer at 4° C. overnight per the manufacturer's recommendations. After washing 3 times, blots were incubated with appropriately labeled secondary antibodies for 1 hr at room temperature and washed again. Fluorescence imaging and quantitation was performed using a LI-COR Odyssey. Results was analyzed using GraphPad Prism 7 software. Compound concentrations that induced KRAS degradation (DC50 and DCmax) were calculated using GraphPad Prism 7 software.
On the technique in general: In western blotting, separated proteins are transferred to a membrane and probed.

Test [2] has as its system NCIH727. The test is described as follows: CellTiter-Glo Reagent cancer cell line proliferation assay, NCIH727. It counts as cell-based, human. Particulars: Homo sapiens, NCI-H727, 24 h, NCIH727, KRAS(G12V) heterozygous. The essentials: (§3)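 Cells were seeded at 4,000 per well, grown 24 hr at 37° C./5% CO2, then exposed 24 hr to 3-fold dilutions from 20 μM to 1.02 nM (0.5% DMSO final). Viability was read with CellTiter-Glo luminescence, and IC50 values were calculated.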
A general note: ATP-based viability assays read luminescence as a measure of living cells.

The subject of test [3] is LU65A. Briefly: CellTiter-Glo Reagent cancer cell line proliferation assay, LU65A. The test is classed as cell-based, human. Particulars: Homo sapiens, 24 h, KRAS(G12C) heterozygous. The gist of the method:
as §3

Test [4] has as its system AGS. Briefly: CellTiter-Glo Reagent cancer cell line proliferation assay, AGS. The test is classed as cell-based, human. Particulars: Homo sapiens, 24 h, KRAS(G12D) heterozygous. The essentials:
as §3

Test [5] relates to GP2D. The test is described as follows: CellTiter-Glo Reagent cancer cell line proliferation assay, GP2D. It counts as cell-based. Particulars: Homo sapiens, KRAS(G12D) heterozygous, 24 hr.
Text: as §1
(§4) Cells were plated in 96-well tissue culture plates at 4,000 cells/well and incubated at 37° C./5% CO2 for 24 hr in 100 μl of media. 3-fold serial dilutions of each test compound were prepared ranging from 20 μM to 1.02 nM. Cells were then treated with test compounds at various concentrations with a final concentration of 0.5% DMSO/well, and then incubated at 37° C./5% CO2 for 24 hr. 100 μl of CellTiter-Glo® Reagent (Promega Corporation, Madison, WI) was added to each well and processed according manufacturer's protocol. Results were analyzed and IC50-values were calculated in GraphPad 7 software.

Test [6] has as its system MKN1. Briefly: CellTiter-Glo Reagent cancer cell line proliferation assay, MKN1. The test is classed as cell-based. The settings on record: Homo sapiens, MKN-1; MKN1, KRAS (wt), 24 hr.
Text: as §1, §4

The target in test [7] is T2, KRAS(G12V) (Homo sapiens, UniProt P01116, G12V).
T2 construct: anti-KRAS Western blot degradation by PROTACs recruiting CRBN or VHL
T2 sequence (P01116 1-188 isoform P01116-2 G12V): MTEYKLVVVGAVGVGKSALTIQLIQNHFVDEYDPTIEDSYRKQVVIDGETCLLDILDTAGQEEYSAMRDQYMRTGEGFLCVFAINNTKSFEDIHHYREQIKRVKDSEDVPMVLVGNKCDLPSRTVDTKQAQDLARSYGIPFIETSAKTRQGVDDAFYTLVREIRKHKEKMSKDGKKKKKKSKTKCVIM
Briefly: KRAS Western Blot Protein Degradation Assay, NCIH727. The settings on record: for DC50: 24 hr, read-out: WB data NCIH727 DC50; for Dmax: NCI-H727, 24 hr, read-out: WB data NCIH727 DMax. It counts as cell-based.
Text: as §1, §2

Usually DC50 stands for the midpoint of the concentration-degradation curve. As usually defined, the Dmax is the largest share of the target that was removed. The IC50 is the concentration at which inhibition is half-maximal. A high value points to weaker potency.

T1 sequence (P01116 1-185 isoform P01116-2 G12C limits assumed): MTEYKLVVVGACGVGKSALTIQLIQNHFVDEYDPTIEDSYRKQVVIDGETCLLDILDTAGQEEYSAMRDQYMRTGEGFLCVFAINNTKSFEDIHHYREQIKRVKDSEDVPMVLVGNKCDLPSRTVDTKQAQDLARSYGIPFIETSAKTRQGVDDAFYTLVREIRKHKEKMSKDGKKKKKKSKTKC

`C#Cc1c(F)ccc2cc(O)cc(-c3ncc4c(N5CC6CCC(C5)N6C(=O)C5(C#N)CC5)nc(OCC5(CN6CCN(CC7CCN(c8ccc9c(c8)CN(C8CCC(=O)NC8=O)C9=O)CC7)CC6)CC5)nc4c3F)c12` (stereo not shown) [Compound 107]: the DC50 in test [1] is 100 to 1000 nM; in test [7] it was < 100 nM. The Dmax in test [1] and in test [7] was > 50% each time. Besides, the IC50 in test [2] was > 1000 nM; in test [3], 100 to 1000 nM; in test [4] it was > 1000 nM; in test [5], 100 to 1000 nM; in test [6], 100 to 1000 nM.

Take `O=CO.[2H]C([2H])([2H])Oc1nc(-c2cc(O)cc3ccc(F)c(C#C)c23)c(F)c2nc(OCC3(CN4CCN(CC5CCN(c6ccc7c(c6)CN(C6CCC(=O)NC6=O)C7=O)CC5)CC4)CC3)nc(N3CC4CCC(C3)N4C(=O)CCC#N)c12` (stereo not shown) [Compound 114]: the DC50 in test [1] and in test [7] was < 100 nM throughout. Moreover, the Dmax in test [1] and in test [7] was > 50% each time. Besides, the IC50 in test [2] was < 100 nM; in test [3], < 100 nM; in test [4], < 100 nM; in test [5], < 100 nM; in test [6], 100 to 1000 nM.

Turning to `C#Cc1c(F)ccc2cc(O)cc(-c3nc(OC)c4c(N5CC6CCC(C5)N6C(=O)CC#N)nc(OCC5(CN6CCN(CC7CCN(c8ccc9c(c8)CN(C8CCC(=O)NC8=O)C9=O)CC7)CC6)CC5)nc4c3F)c12` (stereo not shown) [Compound 102], the DC50 is > 1000 nM in test [1] and < 100 nM in test [7]. Further, the Dmax is 10 to 50% in test [1] and > 50% in test [7]. For the same molecule, the IC50 in test [2] is 100 to 1000 nM; in test [3], 100 to 1000 nM; in test [4] it was > 1000 nM; in test [5], 100 to 1000 nM; in test [6], 100 to 1000 nM.

Take `C#Cc1c(F)ccc2cc(O)cc(-c3ncc4c(N5CCN(C(=O)CC#N)[C@@H](CC#N)C5)nc(OCC5(CN6CCN(CC7CCN(c8ccc9c(c8)CN(C8CCC(=O)NC8=O)C9=O)CC7)CC6)CC5)nc4c3F)c12` (stereo partly drawn) [Compound 103, 3-((2S)-2-(cyanomethyl)-4-(2-((1-((4-((1-(2-(2,6-dioxopiperidin-3-yl)-1-oxoisoindolin-5-yl)piperidin-4-yl)methyl)piperazin-1-yl)methyl)cyclopropyl)methoxy)-7-(8-ethynyl-7-fluoro-3-hydroxynaphthalen-1-yl)-8-fluoropyrido[4,3-d]pyrimidin-4-yl)piperazin-1-yl)-3-oxopropanenitrile]: the DC50 in test [1] and in test [7] was > 1000 nM throughout. Further, the Dmax was 10 to 50% in test [1] and > 50% in test [7]. Also, the IC50 in test [2], in test [3], in test [4], in test [5] and in test [6] was > 1000 nM each time.

In the case of `C#Cc1c(F)ccc2cc(O)cc(-c3ncc4c(N5CC6CCC(C5)N6C(=O)C(C)C#N)nc(OCC5(CN6CCN(CC7CCN(c8ccc9c(c8)CN(C8CCC(=O)NC8=O)C9=O)CC7)CC6)CC5)nc4c3F)c12` (stereo not shown) [Compound 108], the DC50 in test [1] and in test [7] was < 100 nM in each case. The Dmax in test [1] and in test [7] was > 50% throughout. Also, the 50% inhibitory concentration (IC50) was < 100 nM in test [2]; < 100 nM in test [3]; 100 to 1000 nM in test [4]; 100 to 1000 nM in test [5]; 100 to 1000 nM in test [6].

As for `O=CO.[2H]C([2H])([2H])Oc1nc(-c2cc(O)cc3ccc(F)c(C#C)c23)c(F)c2nc(OCC3(CN4CCN(CC5CCN(c6ccc7c(c6)CN(C6CCC(=O)NC6=O)C7=O)CC5)CC4)CC3)nc(N3CC4CCC(C3)N4C(=O)CC(C)C#N)c12` (stereo not shown) [Compound 115], the DC50 in test [1] and in test [7] was < 100 nM throughout. The Dmax in test [1] and in test [7] was > 50% throughout. Besides, the IC50 is < 100 nM in test [2]; < 100 nM in test [3]; < 100 nM in test [4]; < 100 nM in test [5]; > 1000 nM in test [6].

On to `C#Cc1c(F)ccc2cc(O)cc(-c3ncc4c(N5CC6CCC(C5)N6C(=O)C(C)(C)C#N)nc(OCC5(CN6CCN(CC7CCN(c8ccc9c(c8)CN(C8CCC(=O)NC8=O)C9=O)CC7)CC6)CC5)nc4c3F)c12` (stereo not shown) [Compound 106], for which the DC50 in test [1] and in test [7] was > 1000 nM throughout. In addition, the Dmax in test [1] and in test [7] was 10 to 50% in each case. The IC50 is > 1000 nM in test [2]; > 1000 nM in test [3]; > 1000 nM in test [4]; 100 to 1000 nM in test [5]; < 100 nM in test [6].

As for `C#Cc1c(F)ccc2cc(O)cc(-c3ncc4c(N5CC6CCC(C5)N6C(=O)CC#N)nc(OCC5(CN6CCN(CC7CCN(c8ccc9c(c8)CN(C8CCC(=O)NC8=O)C9=O)CC7)CC6)CC5)nc4c3F)c12` (stereo not shown) [Compound 80], the DC50 in test [1] was < 100 nM; in test [7], 100 to 1000 nM. Also, the Dmax in test [1] and in test [7] was > 50% in each case. For the same molecule, the IC50 in test [2] is < 100 nM; in test [3], 100 to 1000 nM.

Regarding `C#Cc1c(F)ccc2cc(O)cc(-c3ncc4c(N5CCN(C(=O)C(=C)F)[C@@H](CC#N)C5)nc(OCC5(CN6CCN(CC7CCN(c8ccc9c(c8)CN(C8CCC(=O)NC8=O)C9=O)CC7)CC6)CC5)nc4c3F)c12` (stereo partly shown) [Compound 105], the DC50 in test [1] was < 100 nM. Further, in test [1], the Dmax was > 50%. The results for the IC50 in test [3] and in test [6] were < 100 nM and > 1000 nM, respectively.

As for `C#Cc1c(F)ccc2cc(O)cc(-c3ncc4c(N5CCN(C(=O)C=C)[C@@H](CC#N)C5)nc(OCC5(CN6CCN(CC7CCN(c8ccc9c(c8)CN(C8CCC(=O)NC8=O)C9=O)CC7)CC6)CC5)nc4c3F)c12` (stereo partly shown) [Compound 79], the DC50 in test [1] is < 100 nM. Besides, the Dmax in test [1] was > 50%. Besides, the IC50 in test [2] is > 1000 nM; in test [3], < 100 nM; in test [6] it was > 1000 nM.

On to `C#Cc1c(F)ccc2cc(O)cc(-c3ncc4c(N5CC6CCC(C5)N6C(=O)[C@@H](C)C#N)nc(OCC5(CN6CCN(CC7CCN(c8ccc9c(c8)CN(C8CCC(=O)NC8=O)C9=O)CC7)CC6)CC5)nc4c3F)c12` (stereo partly shown) [Compound 109], for which the IC50 is 100 to 1000 nM in test [2]; < 100 nM in test [3]; 100 to 1000 nM in test [4]; 100 to 1000 nM in test [5]; > 1000 nM in test [6]. Further, the DC50 in test [7] is < 100 nM. In addition, in test [7], the Dmax was > 50%.
